Experimental data from patent publication US20040067952A1, “Method and composition for treatment of cancer” (priority 2001, published 2004).
Where two headings read alike, the source gives them in different places.

Legend:
HUH-7 = test: [3H]Thymidine incorporation assay, HUH-7; assay type: cell-based; settings: Homo sapiens, 5 days, read-out: % inhibition of [3H] thymidine incorporation (compared to control)
Procedure: (§1) Method: [^3H]Thymidine incorporation assay was employed to study the effect of clofazimine on cell proliferation. Here, adherent cells (5/000-10/000) were plated into 24-well Corning tissue culture dishes and exposed to culture medium (MEM 5% FBS) containing the vehicle or different concentrations of clofazimine (10^-9 to 10^-5 moles per liter). For Novikoff which is a detached rat cell line, 2000 cells were suspended in 2 ml of DMEM (5%FBS) and kept under the same condition as for attached cells. Media were replaced with fresh media on alternate days. […] The amount of radioactivity incorporated was determined using β-scintillation counter (18). Results are presented as the actual counts per minute against the concentration of the drug used in the culture media or as % inhibition (reduction in thymidine incorporation compared to controls). Treatment of different liver cancer cell lines, HUH-7, HepG2, SKHEP-1, Hep3-B (human cell lines) and Novikoff (rat cell line) with clofazimine led to dose-dependent inhibition of [3H]thymidine incorporation by these cells (Table 1 and FIG. 1). Values represent mean±s.e.m of % inhibition of [3H] thymidine incorporation (compared to control) for each cell line when treated for 5 days with different concentrations of clofazimine.

HepG2 = test: [3H]Thymidine incorporation assay, HepG2; assay type: cell-based; settings: Homo sapiens, 5 days, read-out: % inhibition of [3H] thymidine incorporation (compared to control)
Procedure: as §1

SKHEP-1 = test: [3H]Thymidine incorporation assay, SKHEP-1; assay type: cell-based; settings: Homo sapiens, SK-HEP1, 5 days, read-out: % inhibition of [3H] thymidine incorporation (compared to control)
Procedure: as §1

Hep3-B = test: [3H]Thymidine incorporation assay, Hep3-B; assay type: cell-based; settings: Homo sapiens, Hep3B, Hep3-β, 5 days, read-out: % inhibition of [3H] thymidine incorporation (compared to control)
Procedure: as §1

Novikoff = test: [3H]Thymidine incorporation assay, Novikoff; assay type: cell-based; settings: Rattus norvegicus, 5 days, read-out: % inhibition of [3H] thymidine incorporation (compared to control)
Procedure: as §1

LOVO = test: [3H]thymidine incorporation, LOVO colorectal cancer cells; assay type: cell-based, human; settings: 5 day treatment
Procedure: FIG. 8: [3H]thymidine incorporation expressed as counts per minute in LOVO cells (colorectal cancer cell line) treated in culture for 5 days with different concentrations of clofazimine.
Method: [^3H]Thymidine incorporation assay was employed to study the effect of clofazimine on cell proliferation. Here, adherent cells (5/000-10/000) were plated into 24-well Corning tissue culture dishes and exposed to culture medium (MEM 5% FBS) containing the vehicle or different concentrations of clofazimine (10^−9 to 10^−5 moles per liter). For Novikoff which is a detached rat cell line, 2000 cells were suspended in 2 ml of DMEM (5%FBS) and kept under the same condition as for attached cells. Media were replaced with fresh media on alternate days. At the end of the treatment period (5-10 days), cell cultures were assayed for thymidine incorporation by the addition of 0.5 μCi of [3H]thymiydine to each well for the last 4 h of culture. The amount of radioactivity incorporated was determined using β-scintillation counter (18). Results are presented as the actual counts per minute against the concentration of the drug used in the culture media or as % inhibition (reduction in thymidine incorporation compared to controls). […]

HT-29 = test: [3H]thymidine incorporation, HT-29 colorectal cancer cells; assay type: cell-based; settings: Homo sapiens, 120 h; HT-29, 1 μM clofazimine, 5 day treatment period; read-out: inhibition of cell proliferation
C-170 = test: [3H]thymidine incorporation, C-170 colorectal cancer cells; assay type: cell-based; settings: Homo sapiens, C170, 120 h; C-170, 1 μM clofazimine, 5 day treatment period; read-out: inhibition of cell proliferation
Procedure: Method: [^3H]Thymidine incorporation assay was employed to study the effect of clofazimine on cell proliferation. Here, adherent cells (5/000-10/000) were plated into 24-well Corning tissue culture dishes and exposed to culture medium (MEM 5% FBS) containing the vehicle or different concentrations of clofazimine (10^−9 to 10^−5 moles per liter). For Novikoff which is a detached rat cell line, 2000 cells were suspended in 2 ml of DMEM (5%FBS) and kept under the same condition as for attached cells. Media were replaced with fresh media on alternate days. At the end of the treatment period (5-10 days), cell cultures were assayed for thymidine incorporation by the addition of 0.5 μCi of [3H]thymiydine to each well for the last 4 h of culture. The amount of radioactivity incorporated was determined using β-scintillation counter (18). Results are presented as the actual counts per minute against the concentration of the drug used in the culture media or as % inhibition (reduction in thymidine incorporation compared to controls). Treatment of different liver cancer cell lines, HUH-7, HepG2, SKHEP-1, Hep3-B (human cell lines) and Novikoff (rat cell line) with clofazimine led to dose-dependent inhibition of [3H]thymidine incorporation by these cells (Table 1 and FIG. 1).

[1] = Solubility and stability in lipiodol; assay type: physicochemical
[2] = reference 9; cited from earlier work
HCC = HCC patients, cited from earlier work

- solubility in lipiodol [1]: highly soluble
- stability in lipiodol [1]: stable
SMILES: CC(C)/N=c1/cc2n(-c3ccc(Cl)cc3)c3ccccc3nc-2cc1Nc1ccc(Cl)cc1 [clofazimine, 3-(4-chloroanilino)-10-(4-chlorophenyl)-2, 10-dihydro-2-(isopropylimino)-phenazine]
- inhibition at 0.01 µM (HUH-7; HUH-7, clofazimine 0.01 μM): 0%
- inhibition at 0.1 µM (HUH-7; HUH-7, clofazimine 0.1 μM): 38.3 ± 7.2%
- inhibition at 0.5 µM (HUH-7; HUH-7, clofazimine 0.5 μM): 51.1 ± 3.4%
- inhibition at 1 µM (HUH-7; HUH-7, clofazimine 1.0 μM): 88.9 ± 1.1%
- inhibition at 5 µM (HUH-7; HUH-7, clofazimine 5.0 μM): 96.7 ± 0.9%
- inhibition at 0.01 µM (HepG2; HepG2, clofazimine 0.01 μM): 21 ± 1.9%
- inhibition at 0.1 µM (HepG2; HepG2, clofazimine 0.1 μM): 38.2 ± 2.2%
- inhibition at 0.5 µM (HepG2; HepG2, clofazimine 0.5 μM): 52.9 ± 4.7%
- inhibition at 1 µM (HepG2; HepG2, clofazimine 1.0 μM): 75.6 ± 2.7%
- inhibition at 5 µM (HepG2; HepG2, clofazimine 5.0 μM): 92.4 ± 1.9%
- inhibition at 0.01 µM (SKHEP-1; SKHEP-1, clofazimine 0.01 μM): 30.3 ± 2.9%
- inhibition at 0.1 µM (SKHEP-1; SKHEP-1, clofazimine 0.1 μM): 62.7 ± 7.1%
- inhibition at 0.5 µM (SKHEP-1; SKHEP-1, clofazimine 0.5 μM): 69 ± 3.2%
- inhibition at 1 µM (SKHEP-1; SKHEP-1, clofazimine 1.0 μM): 70.9 ± 2.1%
- inhibition at 5 µM (SKHEP-1; SKHEP-1, clofazimine 5.0 μM): 97.1 ± 1.7%
- inhibition at 0.01 µM (Hep3-B; clofazimine 0.01 μM): 28.4 ± 7.4%
- inhibition at 0.1 µM (Hep3-B; clofazimine 0.1 μM): 62.3 ± 3.1%
- inhibition at 0.5 µM (Hep3-B; clofazimine 0.5 μM): 91.6 ± 1.1%
- inhibition at 1 µM (Hep3-B; clofazimine 1.0 μM): 94.3 ± 0.07%
- inhibition at 5 µM (Hep3-B; clofazimine 5.0 μM): 95.4 ± 1.4%
- inhibition at 0.01 µM (Novikoff; clofazimine 0.01 μM): 0%
- inhibition at 0.1 µM (Novikoff; clofazimine 0.1 μM): 0%
- inhibition at 0.5 µM (Novikoff; clofazimine 0.5 μM): 11.7 ± 3.3%
- inhibition at 1 µM (Novikoff; clofazimine 1.0 μM): 18.9 ± 2.9%
- inhibition at 5 µM (Novikoff; clofazimine 5.0 μM): 42.7 ± 4.1%
- inhibition of proliferation as measured by [3H]thymidine incorporation (LOVO): profound inhibition of proliferation
- inhibition at 1 µM (HT-29): > 70%
- inhibition at 1 µM (C-170): > 70%
- log p (octanol/water) [2]: 7.4
- objective response (HCC; clofazimine alone, Falkson et al.): no objective response
- objective response (HCC; oral clofazimine, 3/30, Ruff et al.): 10%
- stabilization of the disease (HCC; oral clofazimine, 13/30, for up to 20 months, Ruff et al.): 43%
